Key:
Type in all cases: biochemical
EGFR = EGFR (Homo sapiens, UniProt P00533); assay: General kinase assay, selectivity panel: EGFR; settings: 10 μM of compound, in comparison to DMSO (0% inhibition)
Method: (§1) The inhibitory effect of compounds according to the present invention on the activity of protein kinases, depicted in Table 1, can be measured according to the following protocol:
(§2) Pipettinq Sequence: • 1) Add 10 μl 4 fold concentrated Substrate+4 fold concentrated ATP in 3 fold concentrated Reaction Buffer to each well of Assay Plate • 2) Add 10 μl 4 fold concentrated inhibitor in 4% DMSO in H2O to each well except to C− and C+ wells • 3) Add 10 μl 4% DMSO in H2O to C− and C+ wells • 4) Add 10 μl 500 mM EDTA in H2O to − wells • 5) Add 10 μl 50 μCi/ml Adenosine 5′-[γ-^33P]triphosphate in H2O to each well • 6) Add 10 μl 4 fold concentrated kinase in Reaction Buffer to each well • 7) Incubate 1 hr at room temperature • 8) Add 10 μl 50 mM EDTA in H2O to each well except to C− wells • 9) Prepare MAPH plates by adding 200 μl 0.75% H3PO4 to each well • 10) Exhaust 0.75% H3PO4 using Millipore vacuum station • 11) Add 60 μl 0.75% H3PO4 to each well of MAPH Filter Plate • 12) Transfer 30 μl sample per well from Assay Plate to corresponding well of MAPH Filter Plate • 13) Incubate 30 min at room temperature • 14) Wash each well of MAPH Filter Plates 3× with 200 μl 0.75% H3PO4 using Millipore vacuum station. • 15) Add 20 μl Scintillation Liquid to each well of MAPH Filter Plate • 16) Seal MAPH Filter Plate • 17) Store MAPH Filter Plate 30 min in darkness • 18) Quantify radioactivity
(§3) The activity of these protein kinases is depicted as % inhibition in the presence of 10 μM of compound in comparison to DMSO (0% inhibition).

GSK-3β = GSK-3β (Homo sapiens, UniProt P49841); assay: General kinase assay, selectivity panel: GSK-3β; settings: 10 μM of compound, in comparison to DMSO (0% inhibition)
GSK-3β, sequence (P49841 whole entry, species assumed): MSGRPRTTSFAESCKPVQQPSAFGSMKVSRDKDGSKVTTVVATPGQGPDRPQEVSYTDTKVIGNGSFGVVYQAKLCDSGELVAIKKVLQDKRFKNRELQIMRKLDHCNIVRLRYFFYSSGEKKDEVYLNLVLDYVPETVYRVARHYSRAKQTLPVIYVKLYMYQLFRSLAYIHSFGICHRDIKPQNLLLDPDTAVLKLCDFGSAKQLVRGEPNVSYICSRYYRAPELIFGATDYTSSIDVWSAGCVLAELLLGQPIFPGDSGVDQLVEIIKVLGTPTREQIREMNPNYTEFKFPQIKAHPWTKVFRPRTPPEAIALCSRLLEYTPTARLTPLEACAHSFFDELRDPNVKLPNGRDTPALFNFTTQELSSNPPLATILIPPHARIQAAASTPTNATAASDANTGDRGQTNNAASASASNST
Method: as §1, §2, §3

p56 Lck = p56 Lck (Homo sapiens, UniProt P06239); assay: General kinase assay, selectivity panel: p56 Lck; settings: 10 μM of compound, in comparison to DMSO (0% inhibition)
p56 Lck, sequence (P06239 whole entry): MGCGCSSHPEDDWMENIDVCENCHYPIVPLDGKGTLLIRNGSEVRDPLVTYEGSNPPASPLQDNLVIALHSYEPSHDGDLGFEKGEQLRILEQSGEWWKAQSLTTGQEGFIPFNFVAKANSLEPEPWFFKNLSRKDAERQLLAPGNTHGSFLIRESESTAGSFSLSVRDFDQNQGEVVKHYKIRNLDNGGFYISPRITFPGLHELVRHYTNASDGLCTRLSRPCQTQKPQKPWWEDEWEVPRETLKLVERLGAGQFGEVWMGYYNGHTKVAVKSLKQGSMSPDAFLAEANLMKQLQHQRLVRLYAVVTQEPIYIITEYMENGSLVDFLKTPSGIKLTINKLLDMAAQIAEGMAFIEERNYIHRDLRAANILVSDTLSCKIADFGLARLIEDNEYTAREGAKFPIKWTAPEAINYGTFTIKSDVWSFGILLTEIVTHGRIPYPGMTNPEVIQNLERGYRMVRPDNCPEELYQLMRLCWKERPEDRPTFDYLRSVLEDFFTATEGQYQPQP
Method: as §1, §2, §3

CDK1 = CDK1 (Homo sapiens, UniProt P06493); assay: General kinase assay, selectivity panel: CDK1; settings: 10 μM of compound, in comparison to DMSO (0% inhibition)
CDK1, sequence (P06493 whole entry, species assumed): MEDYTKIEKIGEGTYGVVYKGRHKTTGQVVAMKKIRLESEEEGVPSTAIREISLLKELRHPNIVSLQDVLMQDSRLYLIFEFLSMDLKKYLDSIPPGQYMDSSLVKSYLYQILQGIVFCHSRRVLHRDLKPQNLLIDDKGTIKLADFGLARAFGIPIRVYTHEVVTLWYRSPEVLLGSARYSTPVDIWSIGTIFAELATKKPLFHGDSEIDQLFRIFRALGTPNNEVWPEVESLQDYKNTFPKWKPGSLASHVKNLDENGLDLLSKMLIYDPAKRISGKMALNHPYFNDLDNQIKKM
CDK1, sequence (P14635 whole entry partner, species assumed): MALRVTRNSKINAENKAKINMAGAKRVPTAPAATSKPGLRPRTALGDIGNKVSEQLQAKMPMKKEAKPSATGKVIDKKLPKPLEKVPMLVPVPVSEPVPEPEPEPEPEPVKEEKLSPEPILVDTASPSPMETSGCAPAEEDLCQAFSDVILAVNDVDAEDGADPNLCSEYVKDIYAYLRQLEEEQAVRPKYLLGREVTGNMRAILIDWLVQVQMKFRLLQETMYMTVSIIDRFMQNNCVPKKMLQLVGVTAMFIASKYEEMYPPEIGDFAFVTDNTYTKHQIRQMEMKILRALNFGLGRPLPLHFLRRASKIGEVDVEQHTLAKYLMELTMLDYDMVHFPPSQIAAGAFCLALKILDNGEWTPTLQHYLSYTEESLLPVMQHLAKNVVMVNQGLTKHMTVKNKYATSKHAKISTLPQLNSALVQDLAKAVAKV
Method: as §1, §2, §3

PDGFR = assay: General kinase assay, selectivity panel: PDGFR; settings: 10 μM of compound, in comparison to DMSO (0% inhibition)
Method: as §1, §2, §3

CDK4 = CDK4 (Homo sapiens, UniProt P11802); assay: CDK4 (activity range), Table 2; no method described
c-Kit = c-Kit (Homo sapiens, UniProt P10721); assay: General kinase assay, selectivity panel: c-Kit; settings: 10 μM of compound, in comparison to DMSO (0% inhibition)
c-Kit, sequence (P10721 26-976): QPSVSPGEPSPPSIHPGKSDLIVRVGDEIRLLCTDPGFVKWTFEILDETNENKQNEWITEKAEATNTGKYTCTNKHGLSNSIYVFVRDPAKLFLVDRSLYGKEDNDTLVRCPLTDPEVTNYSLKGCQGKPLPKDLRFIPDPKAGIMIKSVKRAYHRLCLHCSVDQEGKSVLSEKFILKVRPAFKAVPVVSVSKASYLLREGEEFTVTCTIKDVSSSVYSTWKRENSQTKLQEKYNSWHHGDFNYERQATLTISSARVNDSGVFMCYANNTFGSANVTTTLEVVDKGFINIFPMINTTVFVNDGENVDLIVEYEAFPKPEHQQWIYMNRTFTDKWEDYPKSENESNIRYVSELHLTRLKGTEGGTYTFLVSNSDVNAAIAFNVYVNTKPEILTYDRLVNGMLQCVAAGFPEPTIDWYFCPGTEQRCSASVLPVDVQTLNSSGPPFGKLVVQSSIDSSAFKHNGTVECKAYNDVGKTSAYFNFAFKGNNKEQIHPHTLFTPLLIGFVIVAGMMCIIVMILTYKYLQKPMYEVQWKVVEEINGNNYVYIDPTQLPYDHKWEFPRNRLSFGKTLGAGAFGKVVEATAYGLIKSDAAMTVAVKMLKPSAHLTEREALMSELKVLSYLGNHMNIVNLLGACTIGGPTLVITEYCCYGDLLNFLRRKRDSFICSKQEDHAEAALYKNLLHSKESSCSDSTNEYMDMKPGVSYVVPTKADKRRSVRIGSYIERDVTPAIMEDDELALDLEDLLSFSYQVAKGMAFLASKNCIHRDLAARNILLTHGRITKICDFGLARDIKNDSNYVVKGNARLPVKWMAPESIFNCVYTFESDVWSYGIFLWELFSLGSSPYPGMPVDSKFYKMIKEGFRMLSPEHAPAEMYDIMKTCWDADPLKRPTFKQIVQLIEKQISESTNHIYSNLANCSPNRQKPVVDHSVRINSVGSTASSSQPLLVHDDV
Method: as §1, §2, §3

Abl = Abl (Homo sapiens, UniProt P00519); assay: General kinase assay, selectivity panel: Abl; settings: 10 μM of compound, in comparison to DMSO (0% inhibition)
Abl, sequence (P00519 whole entry, species assumed): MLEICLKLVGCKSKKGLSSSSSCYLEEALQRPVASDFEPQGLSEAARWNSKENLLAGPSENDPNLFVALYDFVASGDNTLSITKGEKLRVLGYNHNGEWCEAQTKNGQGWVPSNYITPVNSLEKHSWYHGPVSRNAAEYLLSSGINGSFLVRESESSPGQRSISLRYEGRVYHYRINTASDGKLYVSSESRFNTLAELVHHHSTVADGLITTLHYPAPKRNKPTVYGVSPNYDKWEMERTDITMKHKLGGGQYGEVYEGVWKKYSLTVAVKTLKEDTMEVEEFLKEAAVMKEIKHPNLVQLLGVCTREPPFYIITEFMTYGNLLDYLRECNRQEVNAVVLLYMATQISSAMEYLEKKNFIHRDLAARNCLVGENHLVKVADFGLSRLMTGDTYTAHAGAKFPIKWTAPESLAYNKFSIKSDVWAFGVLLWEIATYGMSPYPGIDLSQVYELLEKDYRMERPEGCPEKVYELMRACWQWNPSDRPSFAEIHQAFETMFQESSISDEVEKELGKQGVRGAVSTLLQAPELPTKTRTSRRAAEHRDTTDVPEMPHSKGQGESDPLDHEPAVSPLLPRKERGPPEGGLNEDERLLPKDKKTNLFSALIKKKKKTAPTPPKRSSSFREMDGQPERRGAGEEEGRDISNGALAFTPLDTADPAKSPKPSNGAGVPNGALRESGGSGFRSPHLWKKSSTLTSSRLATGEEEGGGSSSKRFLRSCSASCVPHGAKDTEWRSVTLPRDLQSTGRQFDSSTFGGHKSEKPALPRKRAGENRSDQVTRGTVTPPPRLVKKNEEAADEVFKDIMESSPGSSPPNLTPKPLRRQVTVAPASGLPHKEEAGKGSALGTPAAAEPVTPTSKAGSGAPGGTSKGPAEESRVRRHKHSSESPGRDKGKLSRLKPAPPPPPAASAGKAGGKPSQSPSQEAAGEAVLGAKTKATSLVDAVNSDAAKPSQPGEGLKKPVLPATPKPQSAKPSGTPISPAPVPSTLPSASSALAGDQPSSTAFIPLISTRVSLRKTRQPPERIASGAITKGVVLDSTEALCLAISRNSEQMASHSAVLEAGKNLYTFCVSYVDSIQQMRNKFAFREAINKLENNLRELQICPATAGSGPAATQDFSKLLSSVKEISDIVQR
Method: as §1, §2, §3

EGFR, sequence (P00533 25-1210, species assumed): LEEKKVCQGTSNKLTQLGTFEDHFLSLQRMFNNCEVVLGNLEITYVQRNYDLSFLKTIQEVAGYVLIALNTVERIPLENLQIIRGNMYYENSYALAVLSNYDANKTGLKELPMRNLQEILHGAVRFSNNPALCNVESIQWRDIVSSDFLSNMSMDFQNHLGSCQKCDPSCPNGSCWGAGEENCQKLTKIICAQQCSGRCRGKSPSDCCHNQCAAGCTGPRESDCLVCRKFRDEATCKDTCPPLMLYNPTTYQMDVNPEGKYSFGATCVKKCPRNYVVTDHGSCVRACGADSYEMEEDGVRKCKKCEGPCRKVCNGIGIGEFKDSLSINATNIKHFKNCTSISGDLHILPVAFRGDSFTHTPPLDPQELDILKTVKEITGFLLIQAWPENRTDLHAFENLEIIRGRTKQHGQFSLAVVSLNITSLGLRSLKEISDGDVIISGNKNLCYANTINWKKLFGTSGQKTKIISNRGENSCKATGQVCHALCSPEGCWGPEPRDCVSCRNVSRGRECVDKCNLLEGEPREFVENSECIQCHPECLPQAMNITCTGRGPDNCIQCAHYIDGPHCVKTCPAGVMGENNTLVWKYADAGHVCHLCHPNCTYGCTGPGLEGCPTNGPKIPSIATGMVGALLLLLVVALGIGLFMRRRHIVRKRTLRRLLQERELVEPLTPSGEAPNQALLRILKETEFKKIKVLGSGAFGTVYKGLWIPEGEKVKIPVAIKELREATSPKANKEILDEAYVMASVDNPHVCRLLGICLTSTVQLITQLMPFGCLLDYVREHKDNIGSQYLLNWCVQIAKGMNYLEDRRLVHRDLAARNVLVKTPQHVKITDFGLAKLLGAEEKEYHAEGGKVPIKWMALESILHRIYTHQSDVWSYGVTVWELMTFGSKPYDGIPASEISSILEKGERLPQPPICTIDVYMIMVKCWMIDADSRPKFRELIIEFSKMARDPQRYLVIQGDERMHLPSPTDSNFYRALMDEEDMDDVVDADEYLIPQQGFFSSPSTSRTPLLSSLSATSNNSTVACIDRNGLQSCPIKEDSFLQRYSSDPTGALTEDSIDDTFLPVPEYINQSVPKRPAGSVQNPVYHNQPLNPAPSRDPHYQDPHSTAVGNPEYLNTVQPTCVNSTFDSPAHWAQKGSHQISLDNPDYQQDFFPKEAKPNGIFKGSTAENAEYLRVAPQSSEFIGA

SMILES | EGFR (% inhibition) (EGFR) | GSK-3β (% inhibition) (GSK-3β) | p56 Lck (% inhibition) (p56 Lck) | CDK1 (% inhibition) (CDK1) | PDGFR (% inhibition) (PDGFR) | IC50 (CDK4) [µM] | c-Kit (% inhibition) (c-Kit) | Abl (% inhibition) (Abl)
COc1ccccc1-c1cc(Nc2ccc(NC(=O)NC3CCCCC3)cc2)ncn1 [Compound 38] | c (inhibition between 50 and 30%: c) | c (inhibition between 50 and 30%: c) | b (inhibition between 80 and 50%: b) | b (inhibition between 80 and 50%: b) | b (inhibition between 80 and 50%: b) | – | b (inhibition between 80 and 50%: b) | –
COc1ccccc1-c1cc(Nc2ccc(NC(C)=O)cc2)ncn1 [Compound 10] | b (inhibition between 80 and 50%: b) | b (inhibition between 80 and 50%: b) | b (inhibition between 80 and 50%: b) | a (inhibition greater than 80%: a) | c (inhibition between 50 and 30%: c) | – | b (inhibition between 80 and 50%: b) | –
COc1ccccc1-c1cc(Nc2ccc(NC(=O)C3(N)CCCCC3)cc2)ncn1 [Compound 66] | a (inhibition greater than 80%: a) | – | b (inhibition between 80 and 50%: b) | b (inhibition between 80 and 50%: b) | b (inhibition between 80 and 50%: b) | – | b (inhibition between 80 and 50%: b) | b (inhibition between 80 and 50%: b)
COc1ccccc1-c1cc(Nc2ccc(N)cc2)ncn1 [Compound 22] | a (inhibition greater than 80%: a) | c (inhibition between 50 and 30%: c) | b (inhibition between 80 and 50%: b) | a (inhibition greater than 80%: a) | c (inhibition between 50 and 30%: c) | – | b (inhibition between 80 and 50%: b) | –
Cc1ccc(Nc2cc(-c3cccc(N)c3)ncn2)cc1NS(C)(=O)=O [Compound 12] | a (inhibition greater than 80%: a) | a (inhibition greater than 80%: a) | b (inhibition between 80 and 50%: b) | a (inhibition greater than 80%: a) | c (inhibition between 50 and 30%: c) | – | b (inhibition between 80 and 50%: b) | –
COc1ccccc1-c1cc(Nc2ccc(NC(=O)c3ccc(N4CCN(C)CC4)cc3)cc2)ncn1 [Compound 49] | b (inhibition between 80 and 50%: b) | b (inhibition between 80 and 50%: b) | b (inhibition between 80 and 50%: b) | a (inhibition greater than 80%: a) | c (inhibition between 50 and 30%: c) | – | b (inhibition between 80 and 50%: b) | b (inhibition between 80 and 50%: b)
COc1ccccc1-c1cc(Nc2ccc(NC(=O)[C@H]3Cc4ccccc4CN3)cc2)ncn1 [Compound 65] | a (inhibition greater than 80%: a) | – | b (inhibition between 80 and 50%: b) | b (inhibition between 80 and 50%: b) | b (inhibition between 80 and 50%: b) | – | b (inhibition between 80 and 50%: b) | b (inhibition between 80 and 50%: b)
COc1ccccc1-c1cc(Nc2ccc(NC(=O)CC3CCCCN3)cc2)ncn1 (stereo not drawn) [Compound 59] | a (inhibition greater than 80%: a) | – | b (inhibition between 80 and 50%: b) | a (inhibition greater than 80%: a) | b (inhibition between 80 and 50%: b) | – | b (inhibition between 80 and 50%: b) | b (inhibition between 80 and 50%: b)
COc1ccccc1-c1cc(Nc2ccc(NC(=O)c3ccc(N)cc3)cc2)ncn1 [Compound 8] | – | – | b (inhibition between 80 and 50%: b) | a (inhibition greater than 80%: a) | – | – | b (inhibition between 80 and 50%: b) | –
CCN(CC)CCC(=O)Nc1ccc(Nc2cc(-c3ccccc3OC)ncn2)cc1 [Compound 64] | a (inhibition greater than 80%: a) | c (inhibition between 50 and 30%: c) | b (inhibition between 80 and 50%: b) | a (inhibition greater than 80%: a) | b (inhibition between 80 and 50%: b) | – | b (inhibition between 80 and 50%: b) | b (inhibition between 80 and 50%: b)

Results, then the molecule that gave them:

EGFR (% inhibition) (EGFR) | GSK-3β (% inhibition) (GSK-3β) | p56 Lck (% inhibition) (p56 Lck) | CDK1 (% inhibition) (CDK1) | PDGFR (% inhibition) (PDGFR) | IC50 (CDK4) [µM] | c-Kit (% inhibition) (c-Kit) | Abl (% inhibition) (Abl) | SMILES
a (inhibition greater than 80%: a) | a (inhibition greater than 80%: a) | b (inhibition between 80 and 50%: b) | a (inhibition greater than 80%: a) | c (inhibition between 50 and 30%: c) | – | – | – | CCCS(=O)(=O)Nc1cc(Nc2cc(-c3cccc(N)c3)ncn2)ccc1C [Compound 116]
– | – | – | – | – | 1 to 10 | – | – | N[C@@H]1CCCC[C@H]1NC(=O)c1ccc(Nc2cc(-c3ccccc3O)ncn2)cc1 [Compound 218]
– | – | – | – | – | 1 to 10 | – | – | COc1ccccc1-c1cc(Nc2ccc3cnn(C)c3c2)ncn1 [Compound 353]
a (inhibition greater than 80%: a) | – | b (inhibition between 80 and 50%: b) | b (inhibition between 80 and 50%: b) | b (inhibition between 80 and 50%: b) | – | b (inhibition between 80 and 50%: b) | b (inhibition between 80 and 50%: b) | COc1ccccc1-c1cc(Nc2ccc(NC(=O)C3(N)CCCC3)cc2)ncn1 [Compound 68]
a (inhibition greater than 80%: a) | b (inhibition between 80 and 50%: b) | b (inhibition between 80 and 50%: b) | a (inhibition greater than 80%: a) | b (inhibition between 80 and 50%: b) | – | – | c (inhibition between 50 and 30%: c) | COc1ccccc1-c1cc(Nc2ccc(C(=O)NC3CCCNC3)cc2)ncn1 (stereo not drawn) [Compound 86]
c (inhibition between 50 and 30%: c) | c (inhibition between 50 and 30%: c) | b (inhibition between 80 and 50%: b) | a (inhibition greater than 80%: a) | b (inhibition between 80 and 50%: b) | – | b (inhibition between 80 and 50%: b) | – | COc1ccccc1-c1cc(Nc2ccc(NC(=O)Cc3ccccc3)cc2)ncn1 [Compound 71]
a (inhibition greater than 80%: a) | c (inhibition between 50 and 30%: c) | b (inhibition between 80 and 50%: b) | b (inhibition between 80 and 50%: b) | b (inhibition between 80 and 50%: b) | – | – | b (inhibition between 80 and 50%: b) | COc1ccccc1-c1cc(Nc2ccc(NC(=O)[C@H]3CCCN3)cc2)ncn1 [Compound 91]
a (inhibition greater than 80%: a) | – | a (inhibition greater than 80%: a) | b (inhibition between 80 and 50%: b) | b (inhibition between 80 and 50%: b) | – | b (inhibition between 80 and 50%: b) | b (inhibition between 80 and 50%: b) | COc1ccccc1-c1cc(Nc2ccc(NC(=O)[C@H]3CCCCN3)cc2)ncn1 [Compound 69]

Reference: patent US8084457B2, “Pharmaceutically active 4,6-disubstituted aminopyrimidine derivatives as modulators of protein kinases” (Lead Discovery Center GmbH, priority 2003, dated 2011)
